Reference: PMC12006963, “Application of Deuterium in an M1 Positive Allosteric Modulator Back-Up Program: The Discovery of VU6045422” (ACS Chemical Neuroscience, 2025)
pIC50: −log10 of the molar value.

Legend:
hERG = hERG (Homo sapiens, UniProt Q12809); set-up: method as in PMID 39660766; conditions: read-out: hERG manual patch clamp IC50; cited from earlier work
Adrenergic α1A = Adrenergic α1A (Homo sapiens, UniProt P35348); test: Eurofins radioligand binding
Glutamate, NMDA, Glycine = test: Eurofins radioligand binding; set-up: species or system Rat
Adenosine A2A = Adenosine A2A (Homo sapiens, UniProt P29274); test: Eurofins radioligand binding
Glutamate, NMDA, Agonism = test: Eurofins radioligand binding; set-up: species or system Rat
[1] = system: Calcium Channel L-Type, Dihydropyridine; test: Eurofins radioligand binding; set-up: species or system Rat
Opiate μ (OP3, MOP) = Opiate μ (OP3, MOP) (Homo sapiens, UniProt P35372); test: Eurofins radioligand binding
Bradykinin B2 = Bradykinin B2 (Homo sapiens, UniProt P30411); test: Eurofins radioligand binding
Serotonin (5-HT2B) = Serotonin (5-HT2B) (Homo sapiens, UniProt P41595); test: Eurofins radioligand binding
Serotonin (5-HT1A) = Serotonin (5-HT1A) (Homo sapiens, UniProt P08908); test: Eurofins radioligand binding
[2] = system: Calcium Channel L-Type, Benzothiazepine; test: Eurofins radioligand binding; set-up: species or system Rat
Glucocorticoid = Glucocorticoid (Homo sapiens, UniProt P04150); test: Eurofins radioligand binding
[3] = target: Leukotriene, Cysteinyl CysLT1 (Homo sapiens, UniProt Q9Y271); test: Eurofins radioligand binding
Histamine H3 = Histamine H3 (Homo sapiens, UniProt Q9Y5N1); test: Eurofins radioligand binding
Adrenergic β1 = Adrenergic β1 (Homo sapiens, UniProt P08588); test: Eurofins radioligand binding
Adenosine A3 = Adenosine A3 (Homo sapiens, UniProt P0DMS8); test: Eurofins radioligand binding
Potassium Channel [KATP] = Potassium Channel [KATP] (Cricetus cricetus, UniProt Q09427); test: Eurofins radioligand binding; set-up: species or system Hamster
seizure activity = test: Behavioral manifestations of seizure activity (modified Racine score); assay type: in vivo, C57Bl/6 mice; conditions: 100 mg/kg IP in mice; modified Racine scale 0-5
Description: page 9: Brain plasma concentration ratio (Kp) was calculated by dividing brain concentration by plasma concentration for each animal. Unbound brain to unbound plasma concentration ratio (Kp,uu) is calculated using the following formula: Kp,uu = (Brain ng/g x brain fu)/(plasma ng/ml x plasma fu). Pharmacokinetic profiles in rats following oral single escalating doses Single escalating oral dosing in Sprague-Dawley rats was performed at Frontage Laboratories according to their non-GLP Standard Operating Procedure and IACUC protocols. In short, compounds were formulated in 10% Tween 80 in water and dosed at 10 mg/kg. At different times, arterial blood was collected from a femoral artery catheter, and compound concentration was determined in plasma by LC-MS/MS following their non-GLP protocol. PK parameters were determined using Phoenix WinNonlin software (version 6.3). In-vitro determination of blood-brain barrier penetration potential Blood-brain barrier penetration was determined using MDR1-MDCK cell monolayers by Absorption Systems, following their protocol. In short, compounds were incubated at […] final concentration on one side of the cell monolayer for 2 hours. […] Animals were monitored continuously and scored for behavioral manifestations of seizure activity at 5, 15, 30 min, and 1 h. Behavioral manifestations of seizures were scored using a modified Racine scoring system. […]

Phorbol Ester = test: Eurofins radioligand binding; set-up: species or system Mouse
Bradykinin B1 = Bradykinin B1 (Homo sapiens, UniProt P46663); test: Eurofins radioligand binding
[4] = target: Transporter, Norepinephrine (NET) (Homo sapiens, UniProt P23975); test: Eurofins radioligand binding
Adrenergic α2A = Adrenergic α2A (Homo sapiens, UniProt P08913); test: Eurofins radioligand binding
Rolipram = test: Eurofins radioligand binding; set-up: species or system Rat

Sequence of Adenosine A2A (P29274 whole entry): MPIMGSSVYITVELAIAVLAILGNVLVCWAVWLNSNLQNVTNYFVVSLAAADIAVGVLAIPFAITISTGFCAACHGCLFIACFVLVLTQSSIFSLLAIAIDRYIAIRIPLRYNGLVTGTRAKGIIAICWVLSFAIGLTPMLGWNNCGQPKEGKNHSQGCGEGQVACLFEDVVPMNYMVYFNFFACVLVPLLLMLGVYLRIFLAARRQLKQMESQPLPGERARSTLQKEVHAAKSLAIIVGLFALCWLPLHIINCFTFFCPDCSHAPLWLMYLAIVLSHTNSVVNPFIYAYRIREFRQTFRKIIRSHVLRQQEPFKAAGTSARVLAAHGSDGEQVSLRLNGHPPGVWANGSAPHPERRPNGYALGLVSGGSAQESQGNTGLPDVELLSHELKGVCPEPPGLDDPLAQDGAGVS
Sequence of Serotonin (5-HT2B) (P41595 whole entry): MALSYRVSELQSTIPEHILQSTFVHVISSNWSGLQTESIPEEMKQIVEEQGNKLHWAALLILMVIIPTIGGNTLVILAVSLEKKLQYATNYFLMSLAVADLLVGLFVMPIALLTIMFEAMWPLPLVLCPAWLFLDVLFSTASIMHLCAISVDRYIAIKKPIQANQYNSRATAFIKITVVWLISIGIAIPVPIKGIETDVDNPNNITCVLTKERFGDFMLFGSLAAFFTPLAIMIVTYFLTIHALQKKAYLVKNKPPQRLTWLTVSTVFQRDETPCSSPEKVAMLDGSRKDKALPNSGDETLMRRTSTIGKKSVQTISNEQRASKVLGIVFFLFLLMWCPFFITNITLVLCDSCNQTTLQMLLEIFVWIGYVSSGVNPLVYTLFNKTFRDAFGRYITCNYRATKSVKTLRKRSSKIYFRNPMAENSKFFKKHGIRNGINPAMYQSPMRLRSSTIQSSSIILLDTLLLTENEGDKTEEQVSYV
Sequence of Histamine H3 (Q9Y5N1 whole entry): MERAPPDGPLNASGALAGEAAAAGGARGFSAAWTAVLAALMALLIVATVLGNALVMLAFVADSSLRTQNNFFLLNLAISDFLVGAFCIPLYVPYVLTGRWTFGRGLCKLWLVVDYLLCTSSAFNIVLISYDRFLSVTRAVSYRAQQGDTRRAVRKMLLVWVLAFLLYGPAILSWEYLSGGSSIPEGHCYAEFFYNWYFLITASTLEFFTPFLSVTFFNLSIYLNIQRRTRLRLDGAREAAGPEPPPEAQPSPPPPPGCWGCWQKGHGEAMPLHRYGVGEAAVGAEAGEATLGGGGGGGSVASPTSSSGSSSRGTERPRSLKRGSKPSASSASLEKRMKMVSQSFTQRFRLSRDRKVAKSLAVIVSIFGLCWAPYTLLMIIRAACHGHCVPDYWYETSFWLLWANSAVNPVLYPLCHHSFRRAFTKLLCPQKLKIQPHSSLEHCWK
Sequence of Bradykinin B1 (P46663 whole entry): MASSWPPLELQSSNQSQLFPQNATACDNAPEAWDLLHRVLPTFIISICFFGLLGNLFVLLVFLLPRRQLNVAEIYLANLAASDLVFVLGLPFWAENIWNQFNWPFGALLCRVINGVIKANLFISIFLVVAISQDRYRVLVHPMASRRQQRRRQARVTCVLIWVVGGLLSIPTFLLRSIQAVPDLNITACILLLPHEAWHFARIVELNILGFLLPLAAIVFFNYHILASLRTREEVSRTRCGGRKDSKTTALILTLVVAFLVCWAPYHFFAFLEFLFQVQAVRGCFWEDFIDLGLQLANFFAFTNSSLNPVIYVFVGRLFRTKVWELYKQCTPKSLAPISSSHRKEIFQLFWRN
Sequence of Bradykinin B2 (P30411 whole entry): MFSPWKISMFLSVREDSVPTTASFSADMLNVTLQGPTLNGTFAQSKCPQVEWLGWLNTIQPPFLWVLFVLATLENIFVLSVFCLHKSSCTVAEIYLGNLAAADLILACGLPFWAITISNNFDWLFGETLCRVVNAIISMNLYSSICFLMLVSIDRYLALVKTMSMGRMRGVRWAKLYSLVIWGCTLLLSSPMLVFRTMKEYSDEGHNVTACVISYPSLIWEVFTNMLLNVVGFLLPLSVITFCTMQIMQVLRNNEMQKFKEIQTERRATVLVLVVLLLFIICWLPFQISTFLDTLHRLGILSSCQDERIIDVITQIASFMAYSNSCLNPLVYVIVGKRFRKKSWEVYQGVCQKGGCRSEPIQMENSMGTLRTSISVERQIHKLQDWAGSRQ
Sequence of Potassium Channel [KATP] (Q09427 whole entry): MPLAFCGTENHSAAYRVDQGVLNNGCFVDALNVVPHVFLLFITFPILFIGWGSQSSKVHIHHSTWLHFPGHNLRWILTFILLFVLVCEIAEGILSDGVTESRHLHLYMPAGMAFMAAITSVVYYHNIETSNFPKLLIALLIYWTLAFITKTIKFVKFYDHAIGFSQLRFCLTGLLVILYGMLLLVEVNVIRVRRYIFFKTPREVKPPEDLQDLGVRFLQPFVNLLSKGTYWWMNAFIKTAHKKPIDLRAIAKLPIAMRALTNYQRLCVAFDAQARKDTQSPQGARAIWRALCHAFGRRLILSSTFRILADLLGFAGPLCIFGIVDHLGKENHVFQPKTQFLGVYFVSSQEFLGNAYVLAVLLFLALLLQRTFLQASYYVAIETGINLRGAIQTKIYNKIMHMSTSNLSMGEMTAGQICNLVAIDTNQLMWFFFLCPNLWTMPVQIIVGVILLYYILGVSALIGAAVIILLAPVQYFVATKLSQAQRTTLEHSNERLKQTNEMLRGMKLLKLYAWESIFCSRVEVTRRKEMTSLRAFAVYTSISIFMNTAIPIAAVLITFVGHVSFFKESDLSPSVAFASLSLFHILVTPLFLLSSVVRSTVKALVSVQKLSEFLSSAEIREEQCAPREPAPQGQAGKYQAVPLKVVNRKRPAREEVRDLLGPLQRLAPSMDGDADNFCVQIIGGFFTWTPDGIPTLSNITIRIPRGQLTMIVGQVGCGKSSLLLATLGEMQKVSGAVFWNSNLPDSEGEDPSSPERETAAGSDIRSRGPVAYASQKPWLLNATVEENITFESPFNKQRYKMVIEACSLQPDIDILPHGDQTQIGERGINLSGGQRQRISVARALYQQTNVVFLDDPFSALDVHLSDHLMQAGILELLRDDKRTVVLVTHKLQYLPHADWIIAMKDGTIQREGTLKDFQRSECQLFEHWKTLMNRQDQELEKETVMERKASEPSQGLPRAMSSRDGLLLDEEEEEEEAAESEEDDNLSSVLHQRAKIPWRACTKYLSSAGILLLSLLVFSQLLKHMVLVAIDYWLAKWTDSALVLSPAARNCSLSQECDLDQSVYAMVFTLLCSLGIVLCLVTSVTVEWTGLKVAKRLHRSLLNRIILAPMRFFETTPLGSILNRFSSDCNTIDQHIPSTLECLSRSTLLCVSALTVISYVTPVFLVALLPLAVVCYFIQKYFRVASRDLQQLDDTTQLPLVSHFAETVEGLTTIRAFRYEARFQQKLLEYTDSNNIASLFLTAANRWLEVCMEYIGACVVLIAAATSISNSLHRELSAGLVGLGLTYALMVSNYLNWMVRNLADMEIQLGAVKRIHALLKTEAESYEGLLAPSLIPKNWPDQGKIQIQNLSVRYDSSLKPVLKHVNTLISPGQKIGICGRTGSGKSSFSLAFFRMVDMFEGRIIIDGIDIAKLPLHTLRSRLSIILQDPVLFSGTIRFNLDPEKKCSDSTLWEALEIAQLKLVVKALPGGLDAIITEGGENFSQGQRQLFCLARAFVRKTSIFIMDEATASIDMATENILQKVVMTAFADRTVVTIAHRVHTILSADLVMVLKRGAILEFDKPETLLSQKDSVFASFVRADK
Sequence of Serotonin (5-HT1A) (P08908 whole entry): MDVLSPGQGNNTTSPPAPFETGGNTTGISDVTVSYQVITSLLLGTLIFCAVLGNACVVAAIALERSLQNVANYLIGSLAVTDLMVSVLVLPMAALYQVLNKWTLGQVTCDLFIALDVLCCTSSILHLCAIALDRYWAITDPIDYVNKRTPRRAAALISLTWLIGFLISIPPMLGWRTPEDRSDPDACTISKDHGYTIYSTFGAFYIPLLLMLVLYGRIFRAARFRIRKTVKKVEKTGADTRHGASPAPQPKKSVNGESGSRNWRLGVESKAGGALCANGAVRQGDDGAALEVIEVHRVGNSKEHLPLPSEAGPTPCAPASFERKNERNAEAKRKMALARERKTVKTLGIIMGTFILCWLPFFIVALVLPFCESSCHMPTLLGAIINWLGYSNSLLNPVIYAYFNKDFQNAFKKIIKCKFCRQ
Sequence of Adrenergic β1 (P08588 whole entry): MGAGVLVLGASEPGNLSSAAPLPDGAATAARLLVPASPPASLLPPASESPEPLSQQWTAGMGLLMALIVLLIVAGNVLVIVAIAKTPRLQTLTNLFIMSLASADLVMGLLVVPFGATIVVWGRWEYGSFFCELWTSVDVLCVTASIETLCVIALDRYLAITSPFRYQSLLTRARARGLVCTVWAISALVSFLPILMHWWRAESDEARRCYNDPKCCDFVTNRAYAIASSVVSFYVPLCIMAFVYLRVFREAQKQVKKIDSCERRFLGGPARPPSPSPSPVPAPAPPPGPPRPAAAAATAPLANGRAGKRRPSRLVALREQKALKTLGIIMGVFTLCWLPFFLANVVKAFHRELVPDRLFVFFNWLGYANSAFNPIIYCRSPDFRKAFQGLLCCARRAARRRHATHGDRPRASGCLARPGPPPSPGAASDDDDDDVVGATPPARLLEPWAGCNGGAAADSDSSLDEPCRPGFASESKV
Sequence of Leukotriene, Cysteinyl CysLT1 (Q9Y271 whole entry): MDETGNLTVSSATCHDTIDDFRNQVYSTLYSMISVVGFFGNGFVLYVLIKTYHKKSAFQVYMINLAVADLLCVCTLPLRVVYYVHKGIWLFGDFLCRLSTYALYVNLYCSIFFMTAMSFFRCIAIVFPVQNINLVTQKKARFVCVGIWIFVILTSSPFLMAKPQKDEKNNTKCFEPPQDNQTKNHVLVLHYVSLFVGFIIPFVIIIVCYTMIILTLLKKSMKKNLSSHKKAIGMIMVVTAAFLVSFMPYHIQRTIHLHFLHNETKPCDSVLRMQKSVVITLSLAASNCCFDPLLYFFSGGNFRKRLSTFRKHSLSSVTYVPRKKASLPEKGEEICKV

Q: With `Cn1cc2c(-c3cc(F)c(CN4Cc5ncccc5C4=O)c(F)c3)cccc2n1` [compound 1] as the compound, how does the pIC50 (hERG) read?
A: 4.92

Q: What does the source list for `[2H]C1([2H])c2ncccc2C(=O)N1Cc1c(F)cc(-c2cccc3nn(C([2H])([2H])[2H])cc23)cc1F` [compound 5]?
A: inhibition at 10 µM (Adrenergic α1A): 8%; % Inhibition at 10 µM (Glutamate, NMDA, Glycine): -8%; inhibition at 10 µM (Adenosine A2A): 7%; % Inhibition at 10 µM (Glutamate, NMDA, Agonism): 3%; % Inhibition at 10 µM [1]: 6%; inhibition at 10 µM (Opiate μ (OP3, MOP)): 5%; inhibition at 10 µM (Bradykinin B2): 2%; inhibition at 10 µM (Serotonin (5-HT2B)): 10%; inhibition at 10 µM (Serotonin (5-HT1A)): -5%; % Inhibition at 10 µM [2]: 15%; inhibition at 10 µM (Glucocorticoid): 13%; inhibition at 10 µM [3]: -9%; inhibition at 10 µM (Histamine H3): 5%; inhibition at 10 µM (Adrenergic β1): 2%; inhibition at 10 µM (Adenosine A3): 12%; inhibition at 10 µM (Potassium Channel [KATP]): 24%; Racine score (seizure activity): 1; % Inhibition at 10 µM (Phorbol Ester): 5%; inhibition at 10 µM (Bradykinin B1): 13%; inhibition at 10 µM [4]: 12%; inhibition at 10 µM (Adrenergic α2A): 58%; % Inhibition at 10 µM (Rolipram): 10%
